Measured values as given in ChEMBL document CHEMBL5303304, “EUbOPEN Chemogenomics Library - IncuCyte” (2023).

Assays:
Assay type in all cases: toxicity, cell-based
U2OS = assay: Incucyte cell viability with U2OS; conditions: human, 10 µM, compound concentration 10 uM
HEK-293T = assay: Incucyte cell viability with HEK293T; conditions: human, 10 µM, compound concentration 10 uM
Fibroblast = assay: Incucyte cell viability with human fibroblast; conditions: 10 µM, compound concentration 10 uM
Further: unitless GR value; below 1 slowed growth and below 0 cell loss.

SMILES | Growth Rate (U2OS; 0 h, replicate number 2) | Growth Rate (U2OS; 6 h, replicate number 2) | Growth Rate (U2OS; 12 h, replicate number 1) | Growth Rate (U2OS; 12 h, replicate number 2) | Growth Rate (U2OS; 18 h, replicate number 1) | Growth Rate (U2OS; 18 h, replicate number 2) | Growth Rate (U2OS; 24 h, replicate number 1) | Growth Rate (U2OS; 24 h, replicate number 2) | Growth Rate (HEK-293T; 6 h, replicate number 1) | Growth Rate (HEK-293T; 12 h, replicate number 2) | Growth Rate (HEK-293T; 18 h, replicate number 2) | Growth Rate (HEK-293T; 24 h, replicate number 2) | Growth Rate (Fibroblast; 6 h, replicate number 1) | Growth Rate (Fibroblast; 12 h, replicate number 1) | Growth Rate (Fibroblast; 12 h, replicate number 2) | Growth Rate (Fibroblast; 24 h, replicate number 2) | Growth Rate (HEK-293T; 12 h, replicate number 1) | Growth Rate (HEK-293T; 18 h, replicate number 1) | Growth Rate (HEK-293T; 24 h, replicate number 1) | Growth Rate (Fibroblast; 18 h, replicate number 1) | further results
COC(=O)c1cc2c(cn1)[nH]c1ccccc12 [BETA-CCM] | -0.72 | 0.6 | 0.72 | 0.95 | 0.85 | 1 | 0.98 | 0.97 | 0.67 | 0.64 | 0.78 | 0.86 | 0.4 | -1 | 0.65 | 0.9 |  |  |  |  | Growth Rate (Fibroblast; 0 h, replicate number 1): 0.3; Growth Rate (Fibroblast; 6 h, replicate number 2): -0.82; Growth Rate (Fibroblast; 18 h, replicate number 2): 0.98
CC(C)(C)c1ccc(NC(=O)N2CCN(c3ncccc3Cl)CC2)cc1 |  |  | 0.89 |  | 0.88 |  | 0.99 |  | -0.72 | 0.06 | 0.09 | 0.17 | 0.2 |  |  | 0.87 | -0.41 | -0.12 | -0.21 | 0.84 | Growth Rate (HEK-293T; 6 h, replicate number 2): -0.47; Growth Rate (Fibroblast; 0 h, replicate number 2): -0.81
C[C@@H](Cn1c(=O)[nH]/c(=N\c2ccc(Oc3ccccn3)cc2)n(Cc2ccc(Cl)cc2)c1=O)C(=O)O | -0.83 | 0.93 | 0.97 |  | 0.99 |  |  |  | 0.2 |  |  |  | -0.1 |  | 0.04 | 0.85 |  | 0.97 |  |  | Growth Rate (HEK-293T; 6 h, replicate number 2): 0.62; Growth Rate (Fibroblast; 6 h, replicate number 2): -1; Growth Rate (Fibroblast; 18 h, replicate number 2): 0.75
CS(=O)(=O)c1cc(C2(NC(=O)c3cncc4c3cnn4-c3ccc(F)cc3)CC2)ccn1 [BI 639667] |  |  |  | 0.76 |  |  |  |  | 0.52 |  |  |  |  |  | 0.97 |  | 0.77 | 0.9 | 1 |  | Growth Rate (U2OS; 6 h, replicate number 1): 0.64; Growth Rate (HEK-293T; 0 h, replicate number 2): -0.17; Growth Rate (Fibroblast; 0 h, replicate number 2): -0.75
CNc1nc(-c2ccc3c(N)n[nH]c3c2)cc(N2C[C@@H](C(=O)NC3CCCCC3)CC[C@H]2C)n1 |  |  | 0.7 | 0.8 | 0.49 | 0.82 | 0.51 | 0.72 |  | 0.66 | 0.55 | 0.55 |  | 0.62 | 0.96 | 0.64 | 0.89 | 0.8 | 0.72 | 0.38 | Growth Rate (HEK-293T; 0 h, replicate number 1): -1; Growth Rate (HEK-293T; 0 h, replicate number 2): -0.02; Growth Rate (Fibroblast; 0 h, replicate number 1): -0.99; Growth Rate (Fibroblast; 18 h, replicate number 2): 0.7; Growth Rate (Fibroblast; 24 h, replicate number 1): 0.22
CC(C)c1cnn2c(NCc3ccccc3)cc(NCCCCCCN)nc12.Cl | 0.64 | 0.69 | 0.99 | 0.78 | 0.92 | 0.76 | 0.87 | 0.71 | -0.19 | 0.46 | 0.6 | 0.66 | 0.36 | 0.36 | 0.65 | 0.87 | 0.25 | 0.64 | 0.65 | 0.9 | Growth Rate (HEK-293T; 6 h, replicate number 2): -0.03; Growth Rate (Fibroblast; 0 h, replicate number 2): -0.08; Growth Rate (Fibroblast; 6 h, replicate number 2): 0.27; Growth Rate (Fibroblast; 18 h, replicate number 2): 0.69; Growth Rate (Fibroblast; 24 h, replicate number 1): 1
COc1cc2c(NC3CCN(C(C)C)CC3)nc(C3CCCCC3)nc2cc1OCCCN1CCCC1 | 0.19 | 0.03 | 0.2 | -0.13 | 0.05 | -0.16 | -0.01 | -0.23 | -0.49 | -0.45 | -0.38 | -0.39 | -0.16 | -0.07 | -0.48 | -0.46 | -0.43 | -0.39 | -0.26 | -0.27 | Growth Rate (U2OS; 0 h, replicate number 1): -0.98; Growth Rate (U2OS; 6 h, replicate number 1): 0.4; Growth Rate (HEK-293T; 0 h, replicate number 2): -1; Growth Rate (HEK-293T; 6 h, replicate number 2): -0.51; Growth Rate (Fibroblast; 6 h, replicate number 2): -0.65; Growth Rate (Fibroblast; 18 h, replicate number 2): -0.46; Growth Rate (Fibroblast; 24 h, replicate number 1): -0.35
CC(C)Oc1ccc(-c2cnc3c(-c4ccnc5ccccc45)cnn3c2)cc1 |  | 0.23 |  | 0.74 |  | 0.79 |  | 0.97 | -0.63 |  |  |  | 0.72 | -1 |  |  | -0.46 | -0.07 | 0.3 | 0.49 | Growth Rate (U2OS; 0 h, replicate number 1): -0.36; Growth Rate (HEK-293T; 0 h, replicate number 2): 0.99; Growth Rate (Fibroblast; 0 h, replicate number 2): -0.98
CC(C)N(C(=O)C1CCOCC1)c1cc(F)c(Oc2ncc(Cn3nccn3)cc2C(F)(F)F)cc1C(=O)O |  |  |  |  |  | 0.98 |  | 0.93 |  |  |  |  | 0.7 | 0.85 |  |  |  |  |  |  | Growth Rate (U2OS; 0 h, replicate number 1): 0.83; Growth Rate (U2OS; 6 h, replicate number 1): 0.91; Growth Rate (HEK-293T; 0 h, replicate number 2): 0.61; Growth Rate (Fibroblast; 0 h, replicate number 1): 0.24; Growth Rate (Fibroblast; 0 h, replicate number 2): -0.36
CC(Sc1nc2c(cnn2-c2cccc(Cl)c2)c(=O)[nH]1)C(N)=O (stereo not drawn) |  | 0.38 | 0.5 | 0.69 | 0.85 | 0.68 | 0.84 | 0.85 |  |  |  |  | 0.44 |  |  |  |  |  |  | 0.53 | Growth Rate (U2OS; 6 h, replicate number 1): -0.28; Growth Rate (HEK-293T; 0 h, replicate number 1): 1; Growth Rate (HEK-293T; 0 h, replicate number 2): 0.66; Growth Rate (Fibroblast; 0 h, replicate number 2): -1
CC(C)[C@H](CO)Nc1nc(Nc2ccc(C(=O)O)c(Cl)c2)c2ncn(C(C)C)c2n1 [PURVALANOL B] | 0.8 | 0.56 |  | 0.95 |  |  |  |  |  |  |  |  |  |  |  |  |  | 0.9 | 1 | 0.88 | Growth Rate (U2OS; 0 h, replicate number 1): -0.96; Growth Rate (Fibroblast; 0 h, replicate number 1): -0.93
O=C(Nc1cccc(Nc2nccc(Nc3cccc(C(F)(F)F)c3)n2)c1)C1CC1 [ANILINOPYRIMIDINE1] | 0.91 | -0.36 | -0.21 | -0.42 | -0.21 | -0.3 | -0.08 | -0.1 | -0.91 | -0.79 | -0.54 | -0.38 | -0.79 | -0.84 | -0.73 | -0.55 | -0.71 | -0.46 | -0.29 | -0.68 | Growth Rate (U2OS; 0 h, replicate number 1): -0.01; Growth Rate (U2OS; 6 h, replicate number 1): -0.16; Growth Rate (HEK-293T; 6 h, replicate number 2): -0.97; Growth Rate (Fibroblast; 0 h, replicate number 1): -1; Growth Rate (Fibroblast; 6 h, replicate number 2): -1; Growth Rate (Fibroblast; 24 h, replicate number 1): -0.48
